The assay addresses 5-hydroxytryptamine receptor 2A (Homo sapiens) (UniProt P28223). The assay is described as follows: Agonist activity at 5-HT2A (unknown origin) expressed in HEK293 cells assessed as increase in calcium influx by measuring maximal efficacy incubated for 50 mins by Fluo-4 dye based FLIPR assay relative to control. The assay is classed as functional, cell-based. Particulars: filed as agonist.

Results on seven compounds are retold here after ChEMBL document CHEMBL5608248, “Exploring the Therapeutic Potential of Entheogens in Postoperative Cognitive Decline and Psychological Resilience” (ACS Med Chem Lett, 2024).

Broadly, the Emax is the size of the effect at its maximum, as opposed to the concentration needed.

5-hydroxytryptamine receptor 2A (Homo sapiens), sequence (P28223 whole entry): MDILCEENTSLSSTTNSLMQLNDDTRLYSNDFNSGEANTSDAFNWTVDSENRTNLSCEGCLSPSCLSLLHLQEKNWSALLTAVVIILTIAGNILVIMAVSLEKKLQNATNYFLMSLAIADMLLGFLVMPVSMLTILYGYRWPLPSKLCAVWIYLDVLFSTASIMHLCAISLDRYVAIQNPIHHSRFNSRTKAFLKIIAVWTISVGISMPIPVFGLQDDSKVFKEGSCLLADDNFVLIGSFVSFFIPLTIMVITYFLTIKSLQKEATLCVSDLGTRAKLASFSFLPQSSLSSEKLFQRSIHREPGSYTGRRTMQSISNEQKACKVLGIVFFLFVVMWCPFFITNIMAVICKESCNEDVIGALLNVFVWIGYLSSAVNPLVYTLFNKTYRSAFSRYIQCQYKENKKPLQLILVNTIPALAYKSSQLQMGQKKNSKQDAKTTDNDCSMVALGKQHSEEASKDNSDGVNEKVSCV

`COc1cccc(CNCCc2cccc3ccc(OC)cc23)c1`: the Emax turned out to be 84%.

As to `CCN(C)CCc1cccc2ccc(OC)cc12`, the Emax was 63%.

For `CN(C)CCc1cccc2cccc(O)c12`, the Emax was 73%.

With `CCN(C)CCc1cccc2cccc(O)c12`, the Emax came to 68%.

Consider `CC(C)N(C)CCc1cccc2cccc(O)c12`, for which the Emax came out at 79%.

`COc1ccc2cccc(CCN(C)C)c2c1`: the Emax turned out to be 79%.

Take `CN(CCc1cccc2cccc(O)c12)C1CC1`: the Emax came out at 64%.
